Reference: ChEMBL document CHEMBL6153065, “Heterologous Expression and Characterization of Estercin A, a Class II Lanthipeptide Derived from Clostridium estertheticum CF016, with Antimicrobial Activity against Clinically Relevant Pathogens” (2025)
In brackets after ≈: the same amount, converted by molar mass. Activity calls are given as the source filed them. The calls are words filed in the database; no cut-off is given here. *1 amine or outer side, *2 acyl side, *3 side chain or, on linkers, in order; H or OH if unused. Where a SMILES comes first, the peptide text is derived from it. Bridges are numbered along the chain shown (N, C = ends). [ ]: non-standard residue; d: D form. X1 = O=C([C@@H](N[*:1])[C@H](O)C[*:3])[*:2]; Abu(4-yl) = O=C([C@H](CC[*:3])N[*:1])[*:2]

Tests used:
[1] = system: Bacillus cereus; test: Antibacterial activity against Bacillus cereus ATCC14579 assessed as inhibition of bacterial growth at 1 mg/ml incubated for 16 hrs by agar well diffusion assay relative to control; type: functional
[2] = system: Staphylococcus aureus; test: Antibacterial activity against Staphylococcus aureus LMG15975 assessed as inhibition of bacterial growth at 1 mg/ml incubated for 16 hrs by agar well diffusion assay relative to control; type: functional
[3] = system: Lactococcus lactis; test: Antibacterial activity against Lactococcus lactis MG1363 assessed as inhibition of bacterial growth at 1 mg/ml incubated for 16 hrs by agar well diffusion assay relative to control; type: functional
[4] = system: Lactococcus lactis; test: Antibacterial activity against Lactococcus lactis MG1363 assessed as bacterial growth inhibition incubated for 18 hrs by Mueller-Hinton broth based doubling dilution method; type: functional
[5] = system: Listeria monocytogenes; test: Antibacterial activity against Listeria monocytogenes LMG10470 assessed as bacterial growth inhibition incubated for 18 hrs by Mueller-Hinton broth based doubling dilution method; type: functional
[6] = system: Staphylococcus aureus; test: Antibacterial activity against Staphylococcus aureus LMG10147 assessed as bacterial growth inhibition incubated for 18 hrs by Mueller-Hinton broth based doubling dilution method; type: functional
[7] = system: Staphylococcus aureus; test: Antibacterial activity against methicillin-resistant Staphylococcus aureus LMG15975 assessed as bacterial growth inhibition incubated for 18 hrs by Mueller-Hinton broth based doubling dilution method; type: functional
[8] = system: Enterococcus faecalis; test: Antibacterial activity against vancomycin-resistant Enterococcus faecalis LMG16216 assessed as bacterial growth inhibition incubated for 18 hrs by Mueller-Hinton broth based doubling dilution method; type: functional
[9] = system: Enterococcus faecium; test: Antibacterial activity against vancomycin-resistant Enterococcus faecium LMG16003 assessed as bacterial growth inhibition incubated for 18 hrs by Mueller-Hinton broth based doubling dilution method; type: functional
[10] = system: Bacillus cereus; test: Antibacterial activity against Bacillus cereus ATCC14579 assessed as bacterial growth inhibition incubated for 18 hrs by Mueller-Hinton broth based doubling dilution method; type: functional
[11] = system: Clostridium botulinum; test: Antibacterial activity against Clostridium botulinum CECT551 assessed as bacterial growth inhibition incubated for 18 hrs by Mueller-Hinton broth based doubling dilution method; type: functional
[12] = system: Clostridium perfringens; test: Antibacterial activity against Clostridium perfringens CECT376 assessed as bacterial growth inhibition incubated for 18 hrs by Mueller-Hinton broth based doubling dilution method; type: functional
[13] = system: Clostridium tetani; test: Antibacterial activity against Clostridium tetani CECT4629 assessed as bacterial growth inhibition incubated for 18 hrs by Mueller-Hinton broth based doubling dilution method; type: functional
[14] = system: Lactococcus lactis; test: Antibacterial activity against Lactococcus lactis MG1363 assessed as bacterial death at 10 times of MIC by time killing assay; type: functional, organism-based
[15] = system: Lactococcus lactis; test: Binding affinity to Lactococcus lactis MG1363 lipid II at 8 ug by Spot-on-lawn assay; settings: dose 8.0 µg
[16] = system: Cell membrane; test: Induction of membrane permeabilization in Lactococcus lactis MG1363 assessed as pore forming ability by measuring increase in red fluorescence at 2 times MIC measured after 15 mins by SYTO-9 Green dye/red PI staining based fluorescence microscopy; type: subcellular
[17] = system: Lactococcus lactis; test: Antibacterial activity against Lactococcus lactis MG1363 at 1 mg/ml incubated under 22 degreeC for 4 hrs; type: functional, organism-based
[18] = system: Lactococcus lactis; test: Antibacterial activity against Lactococcus lactis MG1363 at 1 mg/ml incubated under 55 degreeC for 4 hrs; type: functional, organism-based
[19] = system: Lactococcus lactis; test: Antibacterial activity against Lactococcus lactis MG1363 at 1 mg/ml incubated at pH 2 for 4 hrs; type: functional, organism-based
[20] = system: Lactococcus lactis; test: Antibacterial activity against Lactococcus lactis MG1363 at 1 mg/ml incubated at pH 4 for 4 hrs; type: functional, organism-based
[21] = system: Lactococcus lactis; test: Antibacterial activity against Lactococcus lactis MG1363 at 1 mg/ml incubated at pH 7 for 4 hrs; type: functional, organism-based
[22] = system: Lactococcus lactis; test: Antibacterial activity against Lactococcus lactis MG1363 at 1 mg/ml incubated for 2 hrs in presence of trypsin by agar plate method; type: functional, organism-based
[23] = system: Lactococcus lactis; test: Antibacterial activity against Lactococcus lactis MG1363 at 1 mg/ml incubated under 95 degreeC for 4 hrs; type: functional, organism-based
[24] = system: Lactococcus lactis; test: Antibacterial activity against Lactococcus lactis MG1363 at 1 mg/ml incubated at pH 10 for 4 hrs; type: functional, organism-based
[25] = system: Bacillus cereus; test: Antibacterial activity against Bacillus cereus ATCC14579 assessed as inhibition of bacterial growth by measuring increased activity more than estercin A (100%) at 1 mg/ml incubated for 16 hrs by agar well diffusion assay; type: functional; design: scale not given: the % may be the effect or the level left
[26] = system: Lactococcus lactis; test: Antibacterial activity against Lactococcus lactis MG1363 assessed as inhibition of bacterial growth by measuring increased activity more than estercin A (100%) at 1 mg/ml incubated for 16 hrs by agar well diffusion assay; type: functional; design: scale not given: the % may be the effect or the level left

SMILES: C=C1NC(=O)[C@H](C(C)C)NC(=O)[C@@H]2CSC[C@@H](C(=O)N[C@@H](CCCCN)C(=O)O)NC(=O)[C@H](CSC[C@H]3NC(=O)[C@H](Cc4ccccc4)NC(=O)[C@@H](NC(=O)[C@@H](NC(=O)[C@@H](NC(=O)[C@@H](NC(=O)CNC(=O)CNC(=O)CN)C(C)C)[C@@H](C)CC)[C@@H](C)O)CSC[C@H](NC(=O)[C@H](CCC(=O)O)NC(=O)[C@H](Cc4c[nH]cn4)NC3=O)C(=O)N[C@@H](Cc3ccc(O)cc3)C(=O)N[C@@H](Cc3ccc(O)cc3)C(=O)N[C@@H](CC(N)=O)C(=O)N2)NC(=O)[C@H]([C@@H](C)O)NC(=O)CNC(=O)[C@H](Cc2c[nH]c3ccccc23)NC(=O)[C@H](CO)NC(=O)[C@H](C)NC(=O)[C@@H]2CCCN2C1=O
- Activity [1]: inactive
- Activity [2]: inactive
- Activity [3]: inactive

SMILES: C=C1NC(=O)[C@H](C(C)C)NC(=O)[C@@H]2CSC[C@@H](C(=O)N[C@@H](CCCCN)C(=O)O)NC(=O)[C@H](CSC[C@@H]3NC(=O)[C@H](Cc4ccccc4)NC(=O)[C@@H](NC(=O)[C@@H](NC(=O)[C@@H](NC(=O)[C@@H](NC(=O)CNC(=O)CNC(=O)CN)C(C)C)[C@@H](C)CC)[C@@H](C)O)CSC[C@H](NC(=O)[C@H](CCC(=O)O)NC(=O)[C@H](Cc4c[nH]cn4)NC3=O)C(=O)N[C@@H](Cc3ccc(O)cc3)C(=O)N[C@@H](Cc3ccc(O)cc3)C(=O)N[C@@H](CC(N)=O)C(=O)N2)NC(=O)CNC(=O)CNC(=O)[C@H](Cc2c[nH]c3ccccc23)NC(=O)[C@H](CO)NC(=O)[C@H](C)NC(=O)[C@@H]2CCCN2C1=O
- MIC [4]: 4 µg/mL (≈ 1.47 µM)
- MIC [5]: > 64 µg/mL
- MIC [6]: 16 µg/mL (≈ 5.87 µM)
- MIC [7]: 4 µg/mL (≈ 1.47 µM)
- MIC [8]: 64 µg/mL (≈ 23.5 µM)
- MIC [9]: 64 µg/mL (≈ 23.5 µM)
- MIC [10]: 8 µg/mL (≈ 2.94 µM)
- MIC [11]: 32 µg/mL (≈ 11.7 µM)
- MIC [12]: 1 µg/mL (≈ 0.367 µM)
- MIC [13]: 4 µg/mL (≈ 1.47 µM)
- Activity [14]: Not active; Slower Rate Of Killing Observed
- Activity [15]: Active
- Activity [16]: Not active; Only Green Fluorescence Observed
- Activity [17]: inactive
- Activity [18]: inactive
- Activity [19]: Active
- Activity [20]: Active
- Activity [21]: Active
- Activity [22]: Active; More Resistant Compared To Nisin
- Activity [1]: 100%
- Activity [2]: 100%
- Activity [3]: 100%
- Activity [23]: Not active; Less Than 30% Reduction In Activity Observed Relative To Control
- Activity [24]: Active

SMILES: C=C(NC(=O)[C@@H](NC(=O)[C@H](Cc1c[nH]cn1)NC(=O)[C@@H](NC(=O)[C@H](CO)NC(=O)[C@@H]1CS[C@@H](C)[C@H]2NC(=O)C(=C)NC(=O)[C@H](NC(=O)[C@H](CCCCN)NC(=O)[C@H](CCSC)NC(=O)[C@H](CC(N)=O)NC(=O)[C@@H]3CS[C@@H](C)[C@@H](NC(=O)[C@H](CCCNN)NC(=O)[C@@H]4CS[C@@H](C)[C@@H](NC(=O)[C@@H]5CSC[C@@H](NC(=O)/C(=C\C)NC(=O)[C@@H](N)[C@@H](C)CC)C(=O)N[C@@H]([C@@H](C)CC)C(=O)NC(=C)C(=O)N[C@@H]([C@@H](C)CC)C(=O)N5)C(=O)N5CCC[C@H]5C(=O)NCC(=O)N4)C(=O)NCC(=O)N[C@@H](C)C(=O)N[C@@H]([C@@H](C)CC)C(=O)N[C@@H](CCSC)C(=O)NCC(=O)N3)[C@H](C)SC[C@H](NC2=O)C(=O)N[C@@H](Cc2c[nH]cn2)C(=O)N1)[C@@H](C)CC)C(C)C)C(=O)N[C@@H](CCCCN)C(=O)O
- MIC [4]: 0.016 µg/mL (≈ 0.00477 µM)
- MIC [5]: 8 µg/mL (≈ 2.39 µM)
- MIC [6]: 16 µg/mL (≈ 4.77 µM)
- MIC [7]: 4 µg/mL (≈ 1.19 µM)
- MIC [8]: 4 µg/mL (≈ 1.19 µM)
- MIC [9]: 4 µg/mL (≈ 1.19 µM)
- MIC [10]: 4 µg/mL (≈ 1.19 µM)
- MIC [11]: 4 µg/mL (≈ 1.19 µM)
- MIC [12]: 1 µg/mL (≈ 0.298 µM)
- MIC [13]: 4 µg/mL (≈ 1.19 µM)
- Activity [14]: Active; Rapid Cell Death Observed
- Activity [16]: Active
- Activity [19]: Active
- Activity [20]: Active
- Activity [21]: Active
- Activity [24]: Active

SMILES: C=C1NC(=O)[C@H](C(C)C)NC(=O)[C@@H]2CSC[C@@H](C(=O)N[C@@H](CCCCN)C(=O)O)NC(=O)[C@H](CSC[C@@H]3NC(=O)[C@H](Cc4ccccc4)NC(=O)[C@@H](NC(=O)[C@@H](NC(=O)[C@@H](NC(=O)[C@@H](NC(=O)CNC(=O)[C@H](CC(N)=O)NC(=O)CN)C(C)C)[C@@H](C)CC)[C@@H](C)O)CSC[C@H](NC(=O)[C@H](CCC(=O)O)NC(=O)[C@H](Cc4c[nH]cn4)NC3=O)C(=O)N[C@@H](Cc3ccc(O)cc3)C(=O)N[C@@H](Cc3ccc(O)cc3)C(=O)N[C@@H](CC(N)=O)C(=O)N2)NC(=O)CNC(=O)CNC(=O)[C@H](Cc2c[nH]c3ccccc23)NC(=O)[C@H](CO)NC(=O)[C@H](C)NC(=O)[C@@H]2CCCN2C1=O
- Activity [2]: 100%
- Activity [25]: 20%
- Activity [26]: 20%

SMILES: C=C1NC(=O)[C@H](C(C)C)NC(=O)[C@@H]2CSC[C@@H](C(=O)N[C@@H](CCCCN)C(=O)O)NC(=O)[C@H](CSC[C@@H]3NC(=O)[C@H](Cc4ccccc4)NC(=O)[C@@H](NC(=O)[C@H](CC(N)=O)NC(=O)[C@@H](NC(=O)[C@@H](NC(=O)CNC(=O)CNC(=O)CN)C(C)C)[C@@H](C)CC)CSC[C@H](NC(=O)[C@H](CCC(=O)O)NC(=O)[C@H](Cc4c[nH]cn4)NC3=O)C(=O)N[C@@H](Cc3ccc(O)cc3)C(=O)N[C@@H](Cc3ccc(O)cc3)C(=O)N[C@@H](CC(N)=O)C(=O)N2)NC(=O)CNC(=O)CNC(=O)[C@H](Cc2c[nH]c3ccccc23)NC(=O)[C@H](CO)NC(=O)[C@H](C)NC(=O)[C@@H]2CCCN2C1=O
- Activity [1]: 100%
- Activity [2]: 100%
- Activity [3]: 100%

SMILES: CC[C@H](C)[C@H](NC(=O)[C@@H](NC(=O)[C@H](CCCCN)NC(=O)[C@H](CC(C)C)NC(=O)[C@@H](NC(=O)CNC(=O)[C@H](CC(N)=O)NC(=O)CN)C(C)C)[C@@H](C)O)C(=O)N[C@H]1CCSC[C@@H]2NC(=O)[C@@H](NC(=O)[C@H](Cc3ccccc3)NC(=O)[C@H](CC(C)C)NC(=O)[C@H](Cc3ccccc3)NC(=O)[C@H](CCC(N)=O)NC(=O)[C@H](Cc3c[nH]c4ccccc34)NC(=O)[C@H]([C@@H](C)O)NC(=O)[C@H](CC(N)=O)NC(=O)[C@H](CCSC)NC(=O)[C@H](CC(N)=O)NC(=O)[C@H](CS)NC(=O)[C@H](CCC(=O)O)NC(=O)[C@H](Cc3c[nH]cn3)NC1=O)[C@H](O)CSC[C@@H](C(=O)O)NC2=O (H-GNGVLKTI[Abu(4-yl)]HECNMNTWQFLF[X1]CC-OH; thioether 9-23, 22-24)
- MIC [12]: 75 µg/mL (≈ 27.4 µM)

SMILES: C=C1NC(=O)[C@H](C(C)C)NC(=O)[C@@H]2CSC[C@@H](C(=O)N[C@@H](CCCCN)C(=O)O)NC(=O)[C@H](CSC[C@H]3NC(=O)[C@H](Cc4ccccc4)NC(=O)[C@@H](NC(=O)[C@@H](NC(=O)[C@@H](NC(=O)[C@@H](NC(=O)CNC(=O)CNC(=O)CN)C(C)C)[C@@H](C)CC)[C@@H](C)O)CSC[C@@H](NC(=O)[C@H](CCC(=O)O)NC(=O)[C@H](Cc4c[nH]cn4)NC3=O)C(=O)N[C@@H](Cc3ccc(O)cc3)C(=O)N[C@@H](Cc3ccc(O)cc3)C(=O)N[C@@H](CC(N)=O)C(=O)N2)NC(=O)CNC(=O)[C@H](CO)NC(=O)[C@H](C)NC(=O)[C@@H]2CCCN2C1=O
- Activity [1]: inactive
- Activity [2]: inactive
- Activity [3]: inactive
